According to publication PMC5247677 (Scientific Reports, 2017):

Experiments:
[1] = tested on: NaV1.7; conditions: 0.3–3 mg/kg i.p., mice
Description: For behavioural assessment we used adult male C57BL/6 J mice or Sprague Dawley rats aged 5–8 weeks. Animals were housed in groups of 2–4 per cage, under 12 h light-dark cycles with standard rodent chow and water ad libitum. All assessments were performed by a blinded investigator unaware of the treatment each animal received. Ethical approval for in vivo experiments in animals was obtained from the University of Queensland, University of Sydney or United Kingdom Home Office animal ethics committee. Experiments involving animals were conducted in accordance with the International Association for the Study of Pain Guidelines for the Use of Animals in Research and the Australian Code of Practice for the Care and Use of Animals for Scientific Purposes, 8th edition (2013).

[2] = molecular target: T1, hNaV1.4 (Homo sapiens, UniProt P35499); test: cell-based; conditions: whole cell electrophysiology, HEK293; pH 7.4, 0.1% BSA; holding −80 mV, test −20 mV; incubation 5–40 min; mean ± SEM, n = 3–9 cells; read-out: pIC50 at hNaV1.4 (converted)
T1 construct: host or cells: HEK293

[3] = tested on: motor performance in rats; format: in vivo, rat (Sprague Dawley)
Description: FCA was administered undiluted in a volume of 150 μL by i.pl injection in rats. Behavioural assessment was performed 3 days post-injection of FCA. For intrathecal administration, a polyethylene lumbar catheter was inserted into the intrathecal space between vertebrae L4–L5. […] Mechanical paw withdrawal thresholds were determined using manual von Frey with a series of calibrated filaments 0.4–15.1 g (Stoelting Co., Wood Dale, USA) using the up-down method. Paw withdrawal latency to a thermal stimulus was determined using the Hargreaves test (Ugo Basile, Camerio VA, Italy). Motor co-ordination was assessed using an accelerating rotarod (Ugo Basile). Latency to fall was recorded in seconds, with a maximal cut off of 300 s. At the completion of experiments, catheter placement was checked by injection of lignocaine (2%, 10 μL) and observation of rapid bilateral hind limb paralysis.

[4] = molecular target: T2, hNaV1.6 (Homo sapiens, UniProt Q9UQD0); test: cell-based; conditions: whole cell electrophysiology, HEK293; pH 7.4, 0.1% BSA; holding −80 mV, test −20 mV; incubation 5–40 min; mean ± SEM, n = 3–9 cells; read-out: pIC50 at hNaV1.6 (converted)
T2 construct: host or cells: HEK293

[5] = molecular target: T3, rKV2.1 (Rattus norvegicus, UniProt P15387); test: Two-electrode voltage-clamp in Xenopus oocytes, wild-type rKV2.1; format: cell-based; conditions: Xenopus laevis oocytes, pH 7.6, 22 °C, 0.1% BSA
T3 construct: expressed in transfected cells; host or cells: Xenopus laevis oocytes

[6] = molecular target: T4, rNaV1.7 (Rattus norvegicus, UniProt O08562); test: Whole-cell patch-clamp (QPatch-16), rNaV1.7; format: cell-based; conditions: QPatch-16, HEK293; pH 7.4, 0.1% BSA; holding −80 mV, test −20 mV; mean ± SEM; read-out: pIC50 at rat NaV1.7 (converted)
T4 construct: expressed in transfected cells; host or cells: HEK293

[7] = molecular target: α3 nAChR (Homo sapiens, UniProt P32297); test: FLIPR calcium responses in SH-SY5Y cells, α3 nAChR; format: cell-based; conditions: FLIPR Tetra, nicotine 30 μM, 0.1–10 μM, 5 min pre-treatment
[8] = molecular target: T5, mNaV1.7 (Mus musculus, UniProt Q62205); test: Whole-cell patch-clamp (PatchXpress), mNaV1.7; format: cell-based; conditions: HEK293, pH 7.4, holding −120 mV, 20 ms test pulse 0 mV, mean ± SEM, read-out: pIC50 at mouse NaV1.7 (converted)
T5 construct: host or cells: HEK293

[9] = precluded chronic testing
[10] = molecular target: T6, hNaV1.3 (Homo sapiens, UniProt Q9NY46); test: cell-based; conditions: whole cell electrophysiology, HEK293; pH 7.4, 0.1% BSA; holding −80 mV, test −20 mV; incubation 5–40 min; mean ± SEM, n = 3–9 cells; read-out: pIC50 at hNaV1.3 (converted)
T6 construct: host or cells: HEK293

[11] = molecular target: T7, hNaV1.5 (Homo sapiens, UniProt Q14524); test: cell-based; conditions: whole cell electrophysiology, HEK293; pH 7.4, 0.1% BSA; holding −80 mV, test −20 mV; incubation 5–40 min; mean ± SEM, n = 3–9 cells; read-out: pIC50 at hNaV1.5 (converted)
T7 construct: host or cells: HEK293

[12] = molecular target: T8, hNaV1.9 (Homo sapiens, UniProt Q9UI33); test: cell-based; conditions: PatchXpress, HEK293
T8 construct: host or cells: HEK293
Source text: Data were plotted and analyzed using GraphPad Prism, version 6.0. For concentration-response curves, a four-parameter Hill equation with variable Hill coefficient was fitted to the data. […] Data are presented as mean ± SEM.

[13] = molecular target: T9, hNaV1.1 (Homo sapiens, UniProt P35498); test: cell-based; conditions: whole cell electrophysiology, HEK293; pH 7.4, 0.1% BSA; holding −80 mV, test −20 mV; incubation 5–40 min; mean ± SEM, n = 3–9 cells; read-out: pIC50 at hNaV1.1 (converted)
T9 construct: host or cells: HEK293

[14] = molecular target: T10, hNaV1.8 (Homo sapiens, UniProt Q9Y5Y9); test: cell-based; conditions: whole cell patch-clamp
T10 construct: host or cells: CHO

[15] = molecular target: T11, hNaV1.2 (Homo sapiens, UniProt Q99250); test: cell-based; conditions: whole cell electrophysiology, HEK293; pH 7.4, 0.1% BSA; holding −80 mV, test −20 mV; incubation 5–40 min; mean ± SEM, n = 3–9 cells; read-out: pIC50 at hNaV1.2 (converted)
T11 construct: host or cells: HEK293

[16] = molecular target: α7 nAChR (Homo sapiens, UniProt P36544); test: FLIPR calcium responses in SH-SY5Y cells, α7 nAChR; format: cell-based; conditions: FLIPR Tetra, choline with PNU120596, 0.1–10 μM, 5 min pre-treatment
α7 nAChR, sequence (P36544 23-502): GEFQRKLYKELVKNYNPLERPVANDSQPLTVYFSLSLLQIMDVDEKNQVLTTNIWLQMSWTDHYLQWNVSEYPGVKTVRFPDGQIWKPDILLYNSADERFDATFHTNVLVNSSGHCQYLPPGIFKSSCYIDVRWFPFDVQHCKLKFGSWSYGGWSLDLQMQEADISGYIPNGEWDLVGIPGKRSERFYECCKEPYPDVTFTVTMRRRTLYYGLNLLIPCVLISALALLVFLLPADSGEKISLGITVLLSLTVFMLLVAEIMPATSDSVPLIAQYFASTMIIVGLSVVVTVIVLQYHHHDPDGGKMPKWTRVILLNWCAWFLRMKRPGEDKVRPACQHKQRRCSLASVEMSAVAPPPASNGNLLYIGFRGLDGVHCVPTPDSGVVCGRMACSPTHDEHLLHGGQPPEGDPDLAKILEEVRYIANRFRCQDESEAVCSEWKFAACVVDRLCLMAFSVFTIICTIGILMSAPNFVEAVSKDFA

T11 sequence (Q99250 whole entry): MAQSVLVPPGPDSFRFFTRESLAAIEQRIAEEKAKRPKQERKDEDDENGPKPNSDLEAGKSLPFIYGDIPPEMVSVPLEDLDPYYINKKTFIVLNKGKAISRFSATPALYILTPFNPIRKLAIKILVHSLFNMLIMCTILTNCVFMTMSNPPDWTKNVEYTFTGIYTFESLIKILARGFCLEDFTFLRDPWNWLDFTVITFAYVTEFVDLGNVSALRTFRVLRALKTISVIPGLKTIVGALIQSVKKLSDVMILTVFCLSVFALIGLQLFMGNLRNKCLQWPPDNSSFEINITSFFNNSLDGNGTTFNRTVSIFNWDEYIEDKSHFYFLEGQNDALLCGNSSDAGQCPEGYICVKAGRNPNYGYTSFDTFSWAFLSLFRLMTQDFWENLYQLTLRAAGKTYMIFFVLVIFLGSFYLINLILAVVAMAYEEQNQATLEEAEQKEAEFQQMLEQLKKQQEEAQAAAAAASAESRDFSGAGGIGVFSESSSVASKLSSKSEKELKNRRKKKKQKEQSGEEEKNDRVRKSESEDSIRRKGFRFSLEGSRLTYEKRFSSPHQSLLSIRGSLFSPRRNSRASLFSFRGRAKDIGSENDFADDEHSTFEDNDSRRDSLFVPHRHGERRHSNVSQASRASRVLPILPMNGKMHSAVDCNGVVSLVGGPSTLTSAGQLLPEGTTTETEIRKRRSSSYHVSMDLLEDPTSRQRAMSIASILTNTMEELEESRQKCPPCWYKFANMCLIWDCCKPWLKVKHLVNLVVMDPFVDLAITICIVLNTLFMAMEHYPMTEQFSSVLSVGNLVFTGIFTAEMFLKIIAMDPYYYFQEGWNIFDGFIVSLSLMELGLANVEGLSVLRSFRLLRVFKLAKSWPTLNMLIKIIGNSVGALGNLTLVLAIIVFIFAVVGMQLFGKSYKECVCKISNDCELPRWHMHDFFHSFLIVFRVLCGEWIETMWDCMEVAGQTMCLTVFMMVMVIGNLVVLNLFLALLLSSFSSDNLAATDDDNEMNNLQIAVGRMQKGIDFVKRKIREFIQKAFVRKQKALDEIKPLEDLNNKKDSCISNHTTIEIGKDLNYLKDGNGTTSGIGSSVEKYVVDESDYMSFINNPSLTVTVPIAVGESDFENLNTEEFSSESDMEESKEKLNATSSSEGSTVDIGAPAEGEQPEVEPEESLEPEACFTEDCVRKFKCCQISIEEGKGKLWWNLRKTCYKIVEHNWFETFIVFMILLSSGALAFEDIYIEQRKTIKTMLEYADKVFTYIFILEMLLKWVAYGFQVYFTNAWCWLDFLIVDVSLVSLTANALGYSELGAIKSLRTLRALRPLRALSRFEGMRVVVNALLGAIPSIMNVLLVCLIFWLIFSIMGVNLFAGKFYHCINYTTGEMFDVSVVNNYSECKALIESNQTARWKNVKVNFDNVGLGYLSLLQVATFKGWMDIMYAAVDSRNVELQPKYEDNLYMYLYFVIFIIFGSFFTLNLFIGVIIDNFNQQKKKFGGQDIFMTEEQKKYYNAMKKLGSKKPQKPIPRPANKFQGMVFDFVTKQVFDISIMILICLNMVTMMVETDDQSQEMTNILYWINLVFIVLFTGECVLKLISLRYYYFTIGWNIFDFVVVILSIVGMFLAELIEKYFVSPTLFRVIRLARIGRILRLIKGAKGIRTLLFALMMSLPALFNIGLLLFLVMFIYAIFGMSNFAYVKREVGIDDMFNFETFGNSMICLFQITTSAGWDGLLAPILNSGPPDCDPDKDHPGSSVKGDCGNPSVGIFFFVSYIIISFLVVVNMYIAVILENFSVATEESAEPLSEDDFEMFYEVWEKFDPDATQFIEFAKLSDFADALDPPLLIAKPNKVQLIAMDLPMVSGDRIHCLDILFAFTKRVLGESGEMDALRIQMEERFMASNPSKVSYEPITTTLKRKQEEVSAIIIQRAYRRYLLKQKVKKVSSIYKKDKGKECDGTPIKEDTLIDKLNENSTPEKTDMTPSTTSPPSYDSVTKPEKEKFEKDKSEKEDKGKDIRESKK
T8 sequence (Q9UI33 whole entry): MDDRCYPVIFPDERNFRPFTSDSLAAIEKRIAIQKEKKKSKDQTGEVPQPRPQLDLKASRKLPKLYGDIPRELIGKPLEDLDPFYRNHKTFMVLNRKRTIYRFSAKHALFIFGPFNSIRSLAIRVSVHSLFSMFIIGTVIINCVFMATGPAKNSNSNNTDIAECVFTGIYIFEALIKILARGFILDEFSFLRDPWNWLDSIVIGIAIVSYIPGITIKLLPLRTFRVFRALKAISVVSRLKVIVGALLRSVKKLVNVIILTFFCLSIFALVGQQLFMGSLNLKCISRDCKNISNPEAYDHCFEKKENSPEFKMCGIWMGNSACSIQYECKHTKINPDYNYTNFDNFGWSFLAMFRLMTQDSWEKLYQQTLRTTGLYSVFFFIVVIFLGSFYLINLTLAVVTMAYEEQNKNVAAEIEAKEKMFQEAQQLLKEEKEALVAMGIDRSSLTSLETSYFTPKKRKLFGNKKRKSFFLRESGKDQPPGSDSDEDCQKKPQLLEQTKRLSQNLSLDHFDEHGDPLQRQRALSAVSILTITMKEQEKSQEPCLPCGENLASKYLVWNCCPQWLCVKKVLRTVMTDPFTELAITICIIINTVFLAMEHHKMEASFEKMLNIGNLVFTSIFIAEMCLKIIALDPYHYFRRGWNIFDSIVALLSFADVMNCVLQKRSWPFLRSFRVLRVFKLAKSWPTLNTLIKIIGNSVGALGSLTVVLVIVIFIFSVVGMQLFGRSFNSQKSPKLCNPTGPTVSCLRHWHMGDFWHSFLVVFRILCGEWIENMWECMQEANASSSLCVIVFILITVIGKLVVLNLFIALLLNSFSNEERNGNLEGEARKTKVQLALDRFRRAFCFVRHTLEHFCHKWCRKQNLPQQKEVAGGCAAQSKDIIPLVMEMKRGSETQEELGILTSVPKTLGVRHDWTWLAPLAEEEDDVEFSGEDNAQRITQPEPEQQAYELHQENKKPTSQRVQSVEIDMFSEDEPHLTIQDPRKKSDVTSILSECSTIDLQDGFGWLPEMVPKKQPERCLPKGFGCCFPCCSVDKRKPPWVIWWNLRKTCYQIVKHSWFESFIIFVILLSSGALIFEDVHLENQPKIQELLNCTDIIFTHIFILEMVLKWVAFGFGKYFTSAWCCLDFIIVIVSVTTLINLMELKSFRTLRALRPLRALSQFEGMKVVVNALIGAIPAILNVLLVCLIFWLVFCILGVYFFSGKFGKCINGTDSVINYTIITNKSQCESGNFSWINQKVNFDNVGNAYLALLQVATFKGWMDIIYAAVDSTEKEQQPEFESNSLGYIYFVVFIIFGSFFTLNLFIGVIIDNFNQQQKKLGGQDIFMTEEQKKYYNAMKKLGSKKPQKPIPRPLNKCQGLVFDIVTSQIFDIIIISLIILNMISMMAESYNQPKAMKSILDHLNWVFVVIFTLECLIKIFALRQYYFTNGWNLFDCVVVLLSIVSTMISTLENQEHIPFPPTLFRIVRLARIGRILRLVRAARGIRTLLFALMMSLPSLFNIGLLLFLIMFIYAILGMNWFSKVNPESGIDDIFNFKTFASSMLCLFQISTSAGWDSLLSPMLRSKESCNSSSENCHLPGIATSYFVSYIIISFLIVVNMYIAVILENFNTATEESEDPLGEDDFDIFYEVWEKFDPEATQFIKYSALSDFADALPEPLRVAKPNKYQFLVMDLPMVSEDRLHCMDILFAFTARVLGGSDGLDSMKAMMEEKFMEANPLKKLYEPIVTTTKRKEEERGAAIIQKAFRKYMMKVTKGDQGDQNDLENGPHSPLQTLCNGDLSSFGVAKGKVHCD
T3 sequence (P15387 whole entry): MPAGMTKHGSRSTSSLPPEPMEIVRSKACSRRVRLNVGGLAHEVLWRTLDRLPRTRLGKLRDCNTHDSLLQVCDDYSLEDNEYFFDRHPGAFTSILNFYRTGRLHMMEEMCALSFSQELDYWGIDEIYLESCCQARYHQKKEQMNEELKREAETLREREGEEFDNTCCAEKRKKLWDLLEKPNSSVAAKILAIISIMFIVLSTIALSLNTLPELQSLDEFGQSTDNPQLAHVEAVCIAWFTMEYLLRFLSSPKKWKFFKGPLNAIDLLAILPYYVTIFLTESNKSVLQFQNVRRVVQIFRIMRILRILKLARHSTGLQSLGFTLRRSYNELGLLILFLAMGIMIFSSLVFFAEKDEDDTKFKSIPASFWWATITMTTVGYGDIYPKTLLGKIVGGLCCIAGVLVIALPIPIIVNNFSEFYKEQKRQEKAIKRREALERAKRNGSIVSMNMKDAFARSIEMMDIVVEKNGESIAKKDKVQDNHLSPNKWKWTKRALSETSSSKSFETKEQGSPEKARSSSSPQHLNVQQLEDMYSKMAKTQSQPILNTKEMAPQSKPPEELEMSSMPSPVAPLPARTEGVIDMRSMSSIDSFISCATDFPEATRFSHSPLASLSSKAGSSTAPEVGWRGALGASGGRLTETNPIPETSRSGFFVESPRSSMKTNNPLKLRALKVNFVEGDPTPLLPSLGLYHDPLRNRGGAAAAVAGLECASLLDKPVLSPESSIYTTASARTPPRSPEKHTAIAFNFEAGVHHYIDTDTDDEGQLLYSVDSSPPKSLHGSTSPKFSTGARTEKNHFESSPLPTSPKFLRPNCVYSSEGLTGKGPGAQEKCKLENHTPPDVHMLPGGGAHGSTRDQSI

CSCC[C@@H]1NC(=O)[C@H](Cc2ccc(O)cc2)NC(=O)[C@H](CCCNC(=N)N)NC(=O)[C@@H](NC(=O)[C@@H](N)CC(=O)O)CSSC[C@@H]2NC(=O)[C@@H]3CSSC[C@@H](C(=O)N[C@@H](C)C(=O)N[C@@H](Cc4c[nH]c5ccccc45)C(=O)N[C@@H](CC(=O)O)C(=O)N[C@@H](Cc4ccccc4)C(=O)N[C@H](C(=O)N[C@@H](Cc4ccccc4)C(=O)N[C@H](C(=O)O)[C@@H](C)O)[C@@H](C)O)NC(=O)[C@H](Cc4ccc(O)cc4)NC(=O)[C@H](CCCCN)NC(=O)[C@H](CCSC)NC(=O)[C@H](CCCCN)NC(=O)[C@H](CCCNC(=N)N)NC(=O)[C@H](CCCCN)NC(=O)[C@H](CSSC[C@H](NC(=O)[C@H](CC(=O)O)NC(=O)CNC(=O)[C@H](Cc4ccccc4)NC1=O)C(=O)N[C@@H](CCC(=O)O)C(=O)N[C@@H](CCCCN)C(=O)N[C@@H](CC(=O)O)C(=O)N[C@@H](CCC(=O)O)C(=O)N[C@@H](CC(=O)O)C(=O)N3)NC(=O)CNC(=O)[C@H](CC(C)C)NC(=O)[C@H](Cc1cnc[nH]1)NC(=O)[C@H](CCCCN)NC2=O [Pn3a, μ-theraphotoxin-Pn3a]
adverse effects [1]: absence of adverse effects
IC50 [2]: 145 nM
Rotarod % Baseline ([3]; 0.3 nmoles intrathecal, control 88 ± 7%, P > 0.05, unpaired t-test, n = 4–9): 91 ± 11%
motor effect ([3]; 1 nmole intrathecal, rats, data not shown): motor impairment was observed
IC50 [4]: 129 nM
IC50 [5]: > 300 nM
IC50 [6]: 1.48 nM
IC50 [7]: > 10000 nM
IC50 [8]: 4.37 nM
pharmacokinetics [9]: poor pharmacokinetics
IC50 [10]: 209 nM
IC50 [11]: 794 nM
IC50 [12]: 2430 nM
IC50 [13]: 37.2 nM
IC50 [14]: 49900 nM
IC50 [15]: 123 nM
IC50 [16]: > 10000 nM
